In PubChem BioAssay (NCI):
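A five-concentration, 48-hour dose response in 96-well plates underlies each endpoint, interpolated linearly between surrounding concentrations. TGI is the concentration that stops growth completely.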

Assays:
Test in all cases: inhibition of tumour cell growth, NCI panel, 48 h
[1] = tested on: 786-0 renal
[2] = tested on: A498 renal
[3] = tested on: A549 NSCLC
[4] = tested on: ACHN renal
[5] = tested on: BT-549 breast
[6] = tested on: CAKI-1 renal
[7] = tested on: CCRF-CEM leukemia
[8] = tested on: COLO 205 colon
[9] = tested on: DU-145 prostate
[10] = tested on: EKVX NSCLC
[11] = tested on: HCC-2998 colon
[12] = tested on: HCT-116 colon
[13] = tested on: HCT-15 colon
[14] = tested on: HL-60(TB) leukemia
[15] = tested on: HOP-62 NSCLC
[16] = tested on: HOP-92 NSCLC
[17] = tested on: HS 578T breast
[18] = tested on: HT29 colon
[19] = tested on: IGROV1 ovarian
[20] = tested on: K-562 leukemia
[21] = tested on: KM12 colon
[22] = tested on: LOX IMVI melanoma
[23] = tested on: M14 melanoma
[24] = tested on: MALME-3M melanoma
[25] = tested on: MCF7 breast
[26] = tested on: MDA-MB-231 breast
[27] = tested on: MDA-MB-435
[28] = tested on: MDA-N
[29] = tested on: MOLT-4 leukemia
[30] = tested on: NCI-H226 lung
[31] = tested on: NCI-H23 lung
[32] = tested on: NCI-H460 lung
[33] = tested on: NCI-H522 lung
[34] = tested on: NCI/ADR-RES ovarian
[35] = tested on: OVCAR-3 ovarian
[36] = tested on: OVCAR-4 ovarian
[37] = tested on: OVCAR-5 ovarian
[38] = tested on: OVCAR-8 ovarian
[39] = tested on: PC-3 prostate
[40] = tested on: RPMI-8226 leukemia
[41] = tested on: RXF 393 renal
[42] = tested on: SF-268 CNS
[43] = tested on: SF-295 CNS
[44] = tested on: SF-539 CNS
[45] = tested on: SK-MEL-2 melanoma
[46] = tested on: SK-MEL-5 melanoma
[47] = tested on: SK-OV-3 ovarian
[48] = tested on: SN12C renal
[49] = tested on: SNB-19 CNS
[50] = tested on: SNB-75 CNS
[51] = tested on: SR leukemia
[52] = tested on: SW-620 colon
[53] = tested on: T-47D breast
[54] = tested on: TK-10 renal
[55] = tested on: U251 CNS
[56] = tested on: UACC-257 melanoma
[57] = tested on: UACC-62 melanoma
[58] = tested on: SK-MEL-28 melanoma
[59] = tested on: UO-31 renal

Which TGI [1] does the source give for `Cc1cc(O)c2c(c1O)C(=O)c1c(O)ccc(O)c1C2=O` here?
Its TGI is over 100 µM.

And the TGI [2]?
Its TGI is over 100 µM.

What about the TGI [3] of the same compound?
The TGI was over 100 µM.

And the TGI [4]?
Its TGI is over 100 µM.

What about the TGI [5] of the same compound?
The TGI was over 100 µM.

And the TGI [6]?
Its TGI is over 100 µM.

What about the TGI [7] of the same compound?
The TGI was over 100 µM.

What about the TGI [8] of the same compound?
Its TGI is over 100 µM.

And the TGI [9]?
The TGI was over 100 µM.

What about the TGI [10] of the same compound?
Its TGI is over 100 µM.

What about the TGI [11] of the same compound?
The TGI was over 100 µM.

What about the TGI [12] of the same compound?
Its TGI is over 100 µM.

What about the TGI [13] of the same compound?
The TGI was over 100 µM.

And the TGI [14]?
Its TGI is over 100 µM.

What about the TGI [15] of the same compound?
Its TGI is over 100 µM.

What about the TGI [16] of the same compound?
The TGI was over 100 µM.

And the TGI [17]?
The TGI was over 100 µM.

And the TGI [18]?
Its TGI is over 100 µM.

And the TGI [19]?
Its TGI is over 100 µM.

What about the TGI [20] of the same compound?
The TGI was over 100 µM.

What about the TGI [21] of the same compound?
Its TGI is over 100 µM.

And the TGI [22]?
The TGI was over 100 µM.

What about the TGI [23] of the same compound?
Its TGI is over 100 µM.

What about the TGI [24] of the same compound?
The TGI was over 100 µM.

What about the TGI [25] of the same compound?
Its TGI is over 100 µM.

What about the TGI [26] of the same compound?
The TGI was over 100 µM.

And the TGI [27]?
The TGI was over 100 µM.

What about the TGI [28] of the same compound?
Its TGI is over 100 µM.

What about the TGI [29] of the same compound?
The TGI was over 100 µM.

What about the TGI [30] of the same compound?
The TGI was over 100 µM.

And the TGI [31]?
The TGI was over 100 µM.

What about the TGI [32] of the same compound?
The TGI was over 100 µM.

What about the TGI [33] of the same compound?
The TGI was over 100 µM.

What about the TGI [34] of the same compound?
The TGI was over 100 µM.

What about the TGI [35] of the same compound?
Its TGI is over 100 µM.

What about the TGI [36] of the same compound?
The TGI was over 100 µM.

And the TGI [37]?
Its TGI is over 100 µM.

What about the TGI [38] of the same compound?
Its TGI is over 100 µM.

What about the TGI [39] of the same compound?
Its TGI is over 100 µM.

What about the TGI [40] of the same compound?
The TGI was over 100 µM.

What about the TGI [41] of the same compound?
Its TGI is over 100 µM.

What about the TGI [42] of the same compound?
The TGI was over 100 µM.

What about the TGI [43] of the same compound?
Its TGI is over 100 µM.

And the TGI [44]?
Its TGI is over 100 µM.

And the TGI [45]?
The TGI was over 100 µM.

And the TGI [46]?
The TGI was over 100 µM.

And the TGI [47]?
The TGI was over 100 µM.

What about the TGI [48] of the same compound?
The TGI was over 100 µM.

What about the TGI [49] of the same compound?
Its TGI is over 100 µM.

What about the TGI [50] of the same compound?
The TGI was over 100 µM.

And the TGI [51]?
Its TGI is over 100 µM.

What about the TGI [52] of the same compound?
The TGI was over 100 µM.

What about the TGI [53] of the same compound?
The TGI was over 100 µM.

And the TGI [54]?
Its TGI is over 100 µM.

What about the TGI [55] of the same compound?
The TGI was over 100 µM.

What about the TGI [56] of the same compound?
Its TGI is over 100 µM.

What about the TGI [57] of the same compound?
The TGI was over 100 µM.

How did the TGI [1] turn out when `CSc1c(C#N)c(O)n(-c2ccc(Cl)cc2)c(=O)c1C#N` was run?
The TGI was over 100 µM.

And the TGI [2]?
The TGI was over 100 µM.

And the TGI [3]?
The TGI was over 100 µM.

And the TGI [5]?
The TGI was over 100 µM.

And the TGI [6]?
Its TGI is over 100 µM.

And the TGI [8]?
Its TGI is over 100 µM.

What about the TGI [9] of the same compound?
The TGI was over 100 µM.

What about the TGI [10] of the same compound?
The TGI was over 100 µM.

And the TGI [11]?
Its TGI is over 100 µM.

What about the TGI [12] of the same compound?
The TGI was over 100 µM.

What about the TGI [13] of the same compound?
The TGI was over 100 µM.

What about the TGI [14] of the same compound?
Its TGI is over 100 µM.

What about the TGI [16] of the same compound?
Its TGI is 98 µM.

And the TGI [17]?
The TGI was over 100 µM.

And the TGI [18]?
The TGI was over 100 µM.

And the TGI [19]?
The TGI was over 100 µM.

What about the TGI [20] of the same compound?
The TGI was over 100 µM.

What about the TGI [21] of the same compound?
Its TGI is over 100 µM.

What about the TGI [22] of the same compound?
The TGI was over 100 µM.

And the TGI [23]?
The TGI was over 100 µM.

And the TGI [24]?
Its TGI is over 100 µM.

And the TGI [25]?
Its TGI is over 100 µM.

And the TGI [26]?
The TGI was over 100 µM.

And the TGI [27]?
The TGI was over 100 µM.

What about the TGI [28] of the same compound?
The TGI was over 100 µM.

And the TGI [29]?
The TGI was over 100 µM.

What about the TGI [30] of the same compound?
Its TGI is over 100 µM.

And the TGI [31]?
Its TGI is over 100 µM.

And the TGI [32]?
Its TGI is over 100 µM.

What about the TGI [33] of the same compound?
The TGI was over 100 µM.

And the TGI [34]?
The TGI was over 100 µM.

What about the TGI [35] of the same compound?
The TGI was over 100 µM.

And the TGI [36]?
The TGI was over 100 µM.

What about the TGI [37] of the same compound?
Its TGI is over 100 µM.

And the TGI [38]?
The TGI was over 100 µM.

What about the TGI [39] of the same compound?
The TGI was over 100 µM.

What about the TGI [40] of the same compound?
Its TGI is over 100 µM.

And the TGI [41]?
Its TGI is over 100 µM.

What about the TGI [42] of the same compound?
Its TGI is over 100 µM.

And the TGI [44]?
Its TGI is over 100 µM.

What about the TGI [45] of the same compound?
Its TGI is over 100 µM.

What about the TGI [58] of the same compound?
Its TGI is over 100 µM.

What about the TGI [46] of the same compound?
Its TGI is over 100 µM.

And the TGI [47]?
Its TGI is over 100 µM.

What about the TGI [48] of the same compound?
The TGI was over 100 µM.

What about the TGI [49] of the same compound?
Its TGI is over 100 µM.

What about the TGI [50] of the same compound?
Its TGI is over 100 µM.

What about the TGI [51] of the same compound?
Its TGI is over 100 µM.

And the TGI [52]?
Its TGI is over 100 µM.

What about the TGI [53] of the same compound?
The TGI was over 100 µM.

What about the TGI [54] of the same compound?
Its TGI is over 100 µM.

What about the TGI [55] of the same compound?
Its TGI is over 100 µM.

And the TGI [56]?
The TGI was over 100 µM.

What about the TGI [57] of the same compound?
The TGI was over 100 µM.

And the TGI [59]?
Its TGI is over 100 µM.
